Laboratory results as given in US4672055A, “Erythromycin salt with mucosecretolytic and fluidizing activity and pharmaceutical compositions thereof” (priority 1984, dated 1987).
Converted amounts (≈) assume the structure as drawn. Like-named read-outs stand apart in the source and are kept apart here.

Tests used:
bronchial mucus = experiment: Fluidizing "in vivo" activity of bronchial mucus of bronchitic rabbits (viscosity); set-up: species or system rabbit (male); settings: oral, based on d,l-sobrerol taken equal to 100
Protocol: A method for studying viscosity of bronchial mucus of a bronchitic rabbit (R. Scuri et al-Il Farmaco, Ed.Pr. 36, 36-48, 1981).
Male rabbits weighing […], made bronchitic by sulphuric acid aerosol treatment according to the method of Cantarelli (G. Cantarelli et al--Il Farmaco, Ed. Pr. 34, 393-416, 1979), are treated with the test drugs and the bronchial mucus is collected by means of a tracheal cannula according to the procedure of R. Scuri (R. Scuri et al -Boll. Chim. Farm. 119, 181-7, 1980). Viscosity of the mucus as withdrawn is studied by using a Contraves RM16 micro viscosimeter and it is recorded by a Rheomat 15T -FC apparatus.
The activity of the compound of formula (I) of this invention is based on the one of d,1-sobrerol, taken equal to 100.

[1] = Acute toxicity (LD50) in the mouse after single oral administration; assay type: in vivo, mouse (Swiss albine, female); settings: in vivo, mortality at 14th day, read-out: DL50 (LD50)
Protocol: (§1) Method for studying LD50 in the mouse after a single oral administration.
(§2) Groups of 10 Swiss albine, female, adult (g.20-22) mice, fasting from the evening preceding the test, are treated by oral way with various doses (4 to 5) of the test drugs, dissolved/suspended in 1% hydroxyethyl cellulose (volume administered : 20ml/kg). Thereafter, the animals are fed again. (Morini MIL fodder for mice)
(§3) The 50% lethal dose (LD50) is calculated by the method of Litchfield, J.T. and Wilcoxon, F. (J. Pharmacol. 96,99-113,1949) by the mortality data as obtained at 14th day after the drug treatment.

[2] = tested on: mucoproduction (bronchial secretion); experiment: Bronchosecretagogue activity (mucoproduction) in the rabbit; assay type: in vivo, rabbit (male brown); settings: oral, percent increase of mucoproduction, period II vs I, based on d,l-trans-sobrerol taken equal to 100
Protocol: Method of mucoproduction in the rabbit according to Scuri R. et al, Boll Chim. Farm. 119, 181-7, 1980.
Male brown rabbits weighing 2.8-3.5 kg. are employed. To said animals, by surgical operation under anaesthesia, a T shaped tracheal cannula is applied, as described in the bibliographic reference mentioned above.
To the cannula, a container (a polyproylene 2 ml test tube) is applied for periodical collection of the bronchial secretion. The study of mucoproduction started at the fourth day after the operation, is divided into two 4 hour periods for collecting and measuring the mucus, and exactly from 8:30 to 12:30 (I) and from 12:30 to 16:30 (II).
The activity of each drug is tested by administering the same by oesophageal way (os) at the begining of the II period and by evaluating the percent increase of mucoproduction (weight of the mucus as collected) over the II period as compared to the I period.
The activity of the compound of formula (I), of the present invention, is based on the d,1-trans-sobrerol one, taken equal to 100.

Proteus vulg. X 19 = experiment: Antimicrobic in vitro activity, MIC; assay type: cell-based
Protocol: (§4) Microbiologic "in vitro" tests. Tests carried out in order to evaluate the values of the Minimum Inhibiting Concentrations (MIC) are performed by the method of the substrate treated with scalar drugs concentrations, by the "multi-points inoculator" technique.
(§5) As test strains, bacteria from clinical isolation and from international culture collections are tested.
(§6) In the tables, the MIC values (mcg/ml), as obtained employing the Mueller-Hinton medium , are reported.
(§7) The MIC values in the tables refer to readings after 24 and 48 hours at 37° C.

Esch. coli 418 = experiment: Antimicrobic in vitro activity, MIC; assay type: cell-based; settings: Mueller-Hinton medium
Protocol: as §4, §5, §6, §7

Staph. aureus 14154 = experiment: Antimicrobic in vitro activity, MIC; assay type: cell-based; settings: Mueller-Hinton medium
Protocol: as §4, §5, §6, §7
(§8) The strains with 4 figures are of ATCC.

Strept. faecalis 8043 = experiment: Antimicrobic in vitro activity, MIC; assay type: cell-based; settings: Mueller-Hinton medium
Protocol: as §4, §5, §6, §7, §8

Staph. aureus 6538 = experiment: Antimicrobic in vitro activity, MIC; assay type: cell-based; settings: Mueller-Hinton medium
Protocol: as §4, §5, §6, §7, §8

Cand. albicans clin = experiment: Antimicrobic in vitro activity, MIC; assay type: cell-based; settings: Mueller-Hinton medium
Protocol: as §4, §5, §6, §7
(§9) clin = clinic isolation

[3] = tested on: Pseud. aerug. clin (strain 12); experiment: Antimicrobic in vitro activity, MIC; assay type: cell-based; settings: Mueller-Hinton medium, 24 hours at 37° C.
Protocol: as §4, §5, §6, §7, §9

[4] = tested on: Pseud. aerug. clin (strain 11); experiment: Antimicrobic in vitro activity, MIC; assay type: cell-based; settings: Mueller-Hinton medium
Protocol: as §4, §5, §6, §7, §9

[5] = tested on: Staph. epiderm clin (strain 4); experiment: Antimicrobic in vitro activity, MIC; assay type: cell-based; settings: Mueller-Hinton medium
Protocol: as §4, §5, §6, §7, §9

[6] = tested on: Pseud. aerug. clin (strain 10); experiment: Antimicrobic in vitro activity, MIC; assay type: cell-based; settings: Mueller-Hinton medium, 24 hours at 37° C.
Protocol: as §4, §5, §6, §7, §9

Serr. marcescens clin = experiment: Antimicrobic in vitro activity, MIC; assay type: cell-based
Protocol: as §4, §5, §6, §7, §9

Strept. faecalis clin = experiment: Antimicrobic in vitro activity, MIC; assay type: cell-based; settings: Mueller-Hinton medium
Protocol: as §4, §5, §6, §7, §9

mouse = experiment: Acute toxicity (LD50) in the mouse after single oral administration; assay type: in vivo, mouse (Swiss albine, female); settings: mortality at 14th day
Protocol: as §1, §2, §3

[7] = Pharmacokinetics: erythromycin in lungs after oral administration; assay type: in vivo; settings: Wistar rats, single oral 800 mg/kg vs erythromycin 585 mg/kg; lung homogenate
Protocol: (§10) Two groups of Wistar rats (180-270g.) are utilized. To the first group the compound of formula (I) of this invention, orally (transoesophageal intubation) at the dose of 800mg/kg, is administered, whilst to the second, again by the oral way, 585 mg/kg of erythromycin are administered.
(§11) Before treatment the rats were fasting for about 15 hours and were allowed to drink ad libitum. In both cases at 0.5 h; 1h;1.5 h; 2h; 3h; 4h; 6h from administration 5 rats/time are sacrificed. The blood as collected in test tubes containing sodium heparin is centrifuged and the plasma so obtained is utilized for the quantitative analysis of erythromycin by means of the micorbiologic standard method, using Staphylococcus aureus as a test organisum (P.G. Welling and W.A. Craig, J. Pharm. Sci. 67, 1057 (1978)).
From the same rats, in similar manner, the lungs are withdrawn and, after homogenizing the tissue, the erythromycin rates are evaluated.

[8] = Pharmacokinetics: plasma levels of erythromycin after oral administration; assay type: in vivo, Wistar rats
Protocol: as §10, §11

[9] = 24 hours at 37° C., read-out: MIC
[10] = 48 hours at 37° C., read-out: MIC
[11] = Mueller-Hinton medium, 24 hours at 37° C.
[12] = Mueller-Hinton medium, 48 hours at 37° C.

## CC1=CC[C@@H](C(C)(C)O)C[C@@H]1O (relative stereo) [d,l-trans-sobrerol]
Bronchial mucus
  Fluidizing in vivo activity (relative to d,l-sobrerol = 100): 100
[1]
  LD50 at 336 h: 2340 mg/kg
[2]
  Bronchosecretagogue activity (relative to d,l-trans-sobrerol = 100): 100

## CC[C@H]1OC(=O)[C@H](C)[C@@H](O[C@H]2C[C@@](C)(OC)[C@@H](O)[C@H](C)O2)[C@H](C)[C@@H](O[C@@H]2O[C@H](C)C[C@H](N(C)C)[C@H]2O)[C@](C)(O)C[C@@H](C)C(=O)[C@H](C)[C@@H](O)[C@]1(C)O [erythromycin]
Proteus vulg. X 19; 24 h
  MIC: 2.5 mg/L (≈ 3.41 µM)
Proteus vulg. X 19; 48 h
  MIC: 2.5 mg/L (≈ 3.41 µM)
Esch. coli 418; Escherichia coli, 418, 24 hours at 37° C., read-out: MIC
  MIC: 25 mg/L (≈ 34.1 µM)
Esch. coli 418; Escherichia coli, 418, 48 hours at 37° C., read-out: MIC
  MIC: 25 mg/L (≈ 34.1 µM)
Bronchial mucus
  Fluidizing in vivo activity (relative to d,l-sobrerol = 100): 0
[1]
  LD50 at 336 h: > 5000 mg/kg
Staph. aureus 14154; Staphylococcus aureus, 14154, 24 hours at 37° C., read-out: MIC
  MIC: 10 mg/L (≈ 13.6 µM)
Staph. aureus 14154; Staphylococcus aureus, 14154, 48 hours at 37° C., read-out: MIC
  MIC: 10 mg/L (≈ 13.6 µM)
Strept. faecalis 8043; Enterococcus faecalis, 8043, 24 hours at 37° C., read-out: MIC
  MIC: 0.3 mg/L (≈ 0.409 µM)
Strept. faecalis 8043; Enterococcus faecalis, 8043, 48 hours at 37° C., read-out: MIC
  MIC: 0.3 mg/L (≈ 0.409 µM)
Staph. aureus 6538; Staphylococcus aureus, 6538, 24 hours at 37° C., read-out: MIC
  MIC: 10 mg/L (≈ 13.6 µM)
Staph. aureus 6538; Staphylococcus aureus, 6538, 48 hours at 37° C., read-out: MIC
  MIC: 10 mg/L (≈ 13.6 µM)
Cand. albicans clin; Candida albicans, 24 hours at 37° C., read-out: MIC
  MIC: 100 mg/L (≈ 136 µM)
Cand. albicans clin; Candida albicans, 48 hours at 37° C., read-out: MIC
  MIC: 100 mg/L (≈ 136 µM)
[3]; read-out: MIC
  MIC: > 100 mg/L
[4]; [9]
  MIC: 100 mg/L (≈ 136 µM)
[4]; [10]
  MIC: 100 mg/L (≈ 136 µM)
[5]; [9]
  MIC: 10 mg/L (≈ 13.6 µM)
[5]; [10]
  MIC: 10 mg/L (≈ 13.6 µM)
[6]; read-out: MIC
  MIC: > 100 mg/L
Serr. marcescens clin; Serratia marcescens, 24 h
  MIC: 45 mg/L (≈ 61.3 µM)
Serr. marcescens clin; Serratia marcescens, 48 h
  MIC: 50 mg/L (≈ 68.1 µM)
Strept. faecalis clin; Enterococcus faecalis, 24 hours at 37° C., read-out: MIC
  MIC: 0.3 mg/L (≈ 0.409 µM)
Strept. faecalis clin; Enterococcus faecalis, 48 hours at 37° C., read-out: MIC
  MIC: 0.3 mg/L (≈ 0.409 µM)
[2]
  Bronchosecretagogue activity (relative to d,l-trans-sobrerol = 100): 0

## Erythromycinsalt of 5-(3-carboxy-1-oxopropoxy)-α, α 4-trimethyl-3-cyclohexene-1-methanol [CO/1311]
Proteus vulg. X 19; [11]
  MIC: 2.5 mg/L
Proteus vulg. X 19; [12]
  MIC: 2.5 mg/L
Esch. coli 418; 24 hours at 37° C.
  MIC: 25 mg/L
Esch. coli 418; 48 hours at 37° C.
  MIC: 25 mg/L
Bronchial mucus
  Fluidizing in vivo activity (relative to d,l-sobrerol = 100): 132
mouse
  DL50 (LD50): 4322.3 mg/kg
[7]
  erythromycin rates in lungs vs erythromycin administration: significantly higher
Staph. aureus 14154; 24 hours at 37° C.
  MIC: 10 mg/L
Staph. aureus 14154; 48 hours at 37° C.
  MIC: 10 mg/L
Strept. faecalis 8043; 24 hours at 37° C.
  MIC: 0.3 mg/L
Strept. faecalis 8043; 48 hours at 37° C.
  MIC: 0.3 mg/L
Staph. aureus 6538; 24 hours at 37° C.
  MIC: 10 mg/L
Staph. aureus 6538; 48 hours at 37° C.
  MIC: 10 mg/L
Cand. albicans clin; 24 hours at 37° C.
  MIC: 100 mg/L
Cand. albicans clin; 48 hours at 37° C.
  MIC: 100 mg/L
[3]
  MIC: > 100 mg/L
[4]; 24 hours at 37° C.
  MIC: 100 mg/L
[4]; 48 hours at 37° C.
  MIC: 100 mg/L
[5]; 24 hours at 37° C.
  MIC: 10 mg/L
[5]; 48 hours at 37° C.
  MIC: 10 mg/L
[6]
  MIC: > 100 mg/L
Serr. marcescens clin; [11]
  MIC: 50 mg/L
Serr. marcescens clin; [12]
  MIC: 50 mg/L
Strept. faecalis clin; 24 hours at 37° C.
  MIC: 0.4 mg/L
Strept. faecalis clin; 48 hours at 37° C.
  MIC: 0.4 mg/L
[8]; Wistar rats, single oral 800 mg/kg vs erythromycin 585 mg/kg, 0.5-6 h, microbiologic assay
  plasmatic levels of erythromycin vs equidose erythromycin administration: significantly higher
[8]; rat, in vivo
  bioavailability of erythromycin vs the antibiotic administered as such: improved bioavailability
[2]
  Bronchosecretagogue activity (relative to d,l-trans-sobrerol = 100): 140
